Source: patent publication US7897349B2, “Macrophage migration inhibitory factor (MIF) as marker for urological inflammatory disease” (The United States of America as represented by the …, priority 2003, dated 2011)
Ends that are not written are not given here.

Columns and labels:
[1] = system: prostate and bladder
Excerpt: In CPPS, prostatic inflammation is suspected to result in referred visceral pain and urodynamic changes. Therefore, we established a model of prostatitis that would allow the study of histological, molecular and physiological changes in the bladder and the prostate, in an effort to correlate it to visceral referred pain.

[2] = system: bladder and the prostate; assay: Systemic substance P (SP) model of neurogenic inflammation in the bladder and prostate; assay type: in vivo, rat
Excerpt: We sought to determine if neurogenic inflammation alone (without producing damage or insult to the bladder epithelia, as was the case in the acid and LPS cystitis models) was also able to alter MIF levels in the bladder. In addition, we examined the prostate for signs of inflammation. Systemic injections of SP elicited plasma extravasation and edema (neurogenic inflammation) in the bladder and the prostate. We examined MIF and cox-2 to compare the results with our previous models of bladder injury (acid and LPS). In addition, we examined nerve growth factor (NGF) and the proto-oncogene c-fos.

[3] = system: bladder; assay: Substance P induced changes in CD74, CD44, p-ERK1/2 and MIF in the rat bladder; assay type: in vivo; conditions: subcutaneous SP 40 μg/kg; one hour
Protocol: The materials and methods are identical to Meyer-Siegler et al. (Journal of Urology 173: February, 2005), the disclosure of which is incorporated herein by reference. In anesthetized rats, the bladder was isolated by cutting the ureters and urine was replaced by saline as intraluminal fluid ([…]). One hour after subcutaneous SP (40 μg/kg) or saline administration, the ILF and bladder were collected. Bladder tissue was analyzed for CD74 and CD44 by immunohistochemistry. Western blot analysis determined the relative amounts of bladder tissue MIF, CD74, CD44, and p-ERK1/2. ILF immunoprecipitation followed by Western blot analysis was performed to identify an association of MIF with CD74 and/or CD44

[4] = system: bladder, lumbosacral spinal cord, DRG and MPG; assay: Intravesical bacterial endotoxin (LPS) model of bladder inflammation; assay type: in vivo, rat
Excerpt: Intravesical instillation of a bacterial endotoxin (lipopolysaccharide from E. Coli) has been documented to produce histological signs of bladder inflammation (Stein et al., J. Urol. 155: 1133-1138, 1996; Saban et al., Am. J Pathol. 160: 2095-2110, 2002; Wheeler et al., Eur. J Pharmacol. 417: 239-248, 2001). […] Therefore, we examined the effects of intravesical LPS on the levels of MIF and cox-2 on the bladder, lumbosacral spinal cord, DRG and MPG.

## C=O [formalin]
[1]; animals receiving formalin in the prostate
  MIF protein level in the bladder: significantly reduced
[1]; chemical irritation of the prostate
  persistence of bladder hyperreflexia: at least 1 hour
[1]; formalin injected into the prostate, maximal in first ten minutes, persisted 60 min
  bladder intercontraction interval: significant decrease

## Substance P (RPKPQQFFGLM-NH2; ends and bridges not checked; UniProt P20366 58-68, looked up) [SP, tachykinin; systemic injection used as model of neurogenic inflammation]
[2]; SP group
  cox-2 and c-fos levels in the bladder and the prostate: significantly elevated
[2]; SP treated animals with isolated bladders
  MIF levels in the urine and serum: significantly increased
[2]; SP treated compared to saline treated
  content of MIF in bladders and prostates: marked decrease
[2]; SP treated rats compared to saline treated rats, p<0.05
  edema in the lamina propria of the bladder (Mean): 2.69±0.1
[2]; SP treated rats, not elevated in the bladder
  NGF levels in the prostate and the urine: significantly elevated
[3]
  CD74 and CD44 bladder immunostaining: increased
  MIF release from the bladder: significant MIF release
  total bladder CD74 protein and mRNA, intracellular domain CD44, p-ERK1/2 and soluble CD44 in the ILF: increased

## lipopolysaccharide from E. Coli [LPS]
[4]; intravesical LPS
  histological changes of the bladder: marked histological changes indicative of cystitis
[4]; intravesical LPS treated rats
  MIF protein and mRNA in all the tissues, including the bladder: significant increases
